Test results published in US20250333406A1, “SULFONYL CYCLIC DERIVATIVES, AND COMPOSITIONS AND METHODS THEREOF” (Lysoway Therapeutics, Inc., priority 2023, published 2025).

Test system: TFEB
Assay: TFEB Nuclear Translocation Assay
Format: cell-based
Settings: read-out: EC50 of TFEB activation

Question: With `CC(C)(F)S(=O)(=O)c1ccc(S(=O)(=O)n2nc(N3CCN(c4ncc(F)cn4)CC34CC4)c3c(Cl)cccc32)cc1` [Compound 22, 4-chloro-1-((4-((2-fluoropropan-2-yl)sulfonyl)phenyl)sulfonyl)-3-(7-(5-fluoropyrimidin-2-yl)-4,7-diazaspiro [2.5]octan-4-yl)-1H-indazole] as the molecule, how does the EC50 read?
Answer: The EC50 was at most 1000 nM.

Question: `O=C(N1CCN(c2nn(S(=O)(=O)c3ccc(C(F)F)cc3)c3cccc(Cl)c23)C(C(F)(F)F)C1)C(F)(F)F` (stereo not drawn) [Compound 76, 1-[4-[4-chloro-1-[4-(difluoromethyl)phenyl]sulfonyl-indazol-3-yl]-3-(trifluoromethyl)piperazin-1-yl]-2,2,2-trifluoro-ethanone] was tested. Which EC50 did it give?
Answer: The EC50 was at most 1000 nM.

Question: For `CC(C)S(=O)(=O)n1ccc(S(=O)(=O)n2nc(N3CCN(c4ncccc4F)CC34CC4)c3c(Cl)cc(F)cc32)c1` [Compound 162, 4-chloro-6-fluoro-3-[7-(3-fluoro-2-pyridyl)-4,7-diazaspiro [2.5]octan-4-yl]-1-(1-isopropylsulfonylpyrrol-3-yl) sulfonyl-indazole], which EC50 is on record?
Answer: Its EC50 is at most 1000 nM.

Question: For `CC(C)S(=O)(=O)c1ccc(S(=O)(=O)n2nc(N3CCN(CC(F)(F)F)CC3C(F)(F)F)c3c(Cl)cccc32)cc1` (stereo not drawn) [Compound 75, 4-chloro-1-(4-isopropylsulfonylphenyl)sulfonyl-3-[4-(2,2,2-trifluoroethyl)-2-(trifluoromethyl)piperazin-1-yl]indazole], which EC50 is on record?
Answer: Its EC50 is at most 1000 nM.

Question: `O=S(=O)(c1ccc(C(F)F)cc1)n1nc(N2CCN(c3ncc(F)cn3)CC2C2CC2)c2c(Cl)cccc21` (stereo not drawn) [Compound 112, 4-chloro-3-[2-cyclopropyl-4-(5-fluoropyrimidin-2-yl)piperazin-1-yl]-1-[4-(difluoromethyl)phenyl]sulfonyl-indazole] was tested. Which EC50 did it give?
Answer: The EC50 was at most 1000 nM.

Question: `CC(C)(C)S(=O)(=O)c1ccc(S(=O)(=O)n2nc(N3CCN(c4ccc(F)cn4)CC34CC4)c3c(Cl)cccc32)s1` [Compound 48, 1-[(5-tert-butylsulfonyl-2-thienyl)sulfonyl]-4-chloro-3-[7-(5-fluoro-2-pyridyl)-4,7-diazaspiro [2.5]octan-4-yl]indazole] was tested. Which EC50 did it give?
Answer: The EC50 was at most 1000 nM.

Question: `CC(C)(c1ccc(S(=O)(=O)n2nc(N3CCN(c4ncc(F)cn4)CC34CC4)c3c(Cl)cccc32)cc1)C(F)F` [Compound 99, 4-chloro-1-[4-(2,2-difluoro-1,1-dimethyl-ethyl)phenyl]sulfonyl-3-[7-(5-fluoropyrimidin-2-yl)-4,7-diazaspiro[2.5]octan-4-yl]indazole] was tested. Which EC50 did it give?
Answer: Its EC50 is at most 1000 nM.

Question: Which EC50 does the source give for `CC(C)S(=O)(=O)c1ccc(S(=O)(=O)n2nc(N3CCN(c4ncc(Cl)cc4F)CC34CC4)c3c(Cl)cc(F)cc32)s1` [Compound 35, 4-chloro-3-(7-(5-chloro-3-fluoropyridin-2-yl)-4,7-diazaspiro[2.5]octan-4-yl)-6-fluoro-1-((5-(isopropylsulfonyl)thiophen-2-yl)sulfonyl)-1H-indazole] here?
Answer: Its EC50 is at most 1000 nM.

Question: Which EC50 does the source give for `O=S(=O)(c1ccc(SC(F)(F)F)cc1)n1nc(N2CCN(c3ncc(F)cn3)CC23CC3)c2c(Cl)cccc21` [Compound 118, 4-chloro-3-[7-(5-fluoropyrimidin-2-yl)-4,7-diazaspiro[2.5]octan-4-yl]-1-[4-(trifluoromethylsulfanyl)phenyl]sulfonyl-indazole] here?
Answer: Its EC50 is at most 1000 nM.

Question: With `CC(C)S(=O)(=O)c1ccc(S(=O)(=O)n2nc(N3CCN(C(=O)C(F)(F)F)CC34CC4)c3c(Cl)cccc32)cc1` [Compound 55, 1-[4-[4-chloro-1-(4-isopropylsulfonylphenyl)sulfonyl-indazol-3-yl]-4,7-diazaspiro [2.5]octan-7-yl]-2,2,2-trifluoro-ethanone] as the molecule, how does the EC50 read?
Answer: The EC50 was at most 1000 nM.

Question: For `CC(C)S(=O)(=O)n1ccc(S(=O)(=O)n2nc(N3CCC(F)(F)CC34CC4)c3c(Cl)cc(F)cc32)c1` [Compound 191, 4-chloro-3-(7,7-difluoro-4-azaspiro [2.5]octan-4-yl)-6-fluoro-1-(1-isopropylsulfonylpyrrol-3-yl) sulfonyl-indazole], which EC50 is on record?
Answer: Its EC50 is at most 1000 nM.

Question: How did the EC50 turn out when `CC(C)S(=O)(=O)c1ccc(S(=O)(=O)n2nc(N3CCN(C(=O)C(F)(F)F)C[C@H]3C(F)(F)F)c3c(Cl)cccc32)cc1` (single isomer, unassigned) [Compound 71] was run?
Answer: Its EC50 is at most 1000 nM.

Question: How did the EC50 turn out when `CC(C)S(=O)(=O)n1ccc(S(=O)(=O)n2nc(N3CCN(c4ncc(F)cn4)CC34CCC4)c3c(Cl)cc(F)cc32)c1` [Compound 179, 4-chloro-6-fluoro-3-(8-(5-fluoropyrimidin-2-yl)-5,8-diazaspiro [3.5]nonan-5-yl)-1-((1-(isopropylsulfonyl)-1H-pyrrol-3-yl)sulfonyl)-1H-indazole] was run?
Answer: The EC50 was at most 1000 nM.

Question: For `CC(C)S(=O)(=O)c1ccc(S(=O)(=O)n2nc(N3CCN(C(=O)C(F)(F)F)CC34CC4)c3c(Cl)cccc32)s1` [Compound 9, 1-[4-[4-chloro-1-[(5-isopropylsulfonyl-2-thienyl)sulfonyl]indazol-3-yl]-4,7-diazaspiro [2.5]octan-7-yl]-2,2,2-trifluoro-ethanone], which EC50 is on record?
Answer: The EC50 was at most 1000 nM.

Question: Which EC50 does the source give for `CC(C)S(=O)(=O)c1ccc(S(=O)(=O)n2nc(N3CCN(c4ncc(F)cn4)CC34CC4)c3c(F)cc(F)cc32)cc1` [Compound 20, 4,6-difluoro-3-[7-(5-fluoropyrimidin-2-yl)-4,7-diazaspiro [2.5]octan-4-yl]-1-(4-isopropylsulfonylphenyl) sulfonyl-indazole] here?
Answer: The EC50 was at most 1000 nM.

Question: Which EC50 does the source give for `CC(F)(F)c1ccc(S(=O)(=O)n2nc(N3CCN(c4ncc(F)cc4F)CC34CC4)c3c(Cl)cccc32)cc1` [Compound 123, 4-chloro-1-((4-(1,1-difluoroethyl)phenyl)sulfonyl)-3-(7-(3,5-difluoropyridin-2-yl)-4,7-diazaspiro[2.5]octan-4-yl)-1H-indazole] here?
Answer: The EC50 was at most 1000 nM.

Question: Which EC50 does the source give for `CC(C)S(=O)(=O)n1ccc(S(=O)(=O)n2nc(N3CCN(c4ncc(F)cc4F)CC34CC4)c3c(F)cc(Cl)cc32)c1` [Compound 168, 6-chloro-3-[7-(3,5-difluoro-2-pyridyl)-4,7-diazaspiro [2.5]octan-4-yl]-4-fluoro-1-(1-isopropylsulfonylpyrrol-3-yl) sulfonyl-indazole] here?
Answer: Its EC50 is at most 1000 nM.

Question: `CC(C)S(=O)(=O)c1ccc(S(=O)(=O)n2nc(N3CCN(c4ncc(F)cn4)CC3C3CC3)c3c(Cl)cccc32)cc1` (stereo not drawn) [Compound 50, 4-chloro-3-(2-cyclopropyl-4-(5-fluoropyrimidin-2-yl)piperazin-1-yl)-1-((4-(isopropylsulfonyl)phenyl)sulfonyl)-1H-indazole] was tested. Which EC50 did it give?
Answer: Its EC50 is at most 1000 nM.

Question: With `CC(C)S(=O)(=O)n1ccc(S(=O)(=O)n2nc(N3CCC34CCC4)c3c(Cl)cc(F)cc32)c1` [Compound 189, 3-(1-azaspiro [3.3]heptan-1-yl)-4-chloro-6-fluoro-1-(1-isopropylsulfonylpyrrol-3-yl) sulfonyl-indazole] as the molecule, how does the EC50 read?
Answer: The EC50 was at most 1000 nM.

Question: Which EC50 does the source give for `CC(C)S(=O)(=O)n1ccc(S(=O)(=O)n2nc(N3CCC(N(C)C)CC34CC4)c3c(Cl)cc(F)cc32)c1` (stereo not drawn) [Compound 186, 4-[4-chloro-6-fluoro-1-(1-isopropylsulfonylpyrrol-3-yl)sulfonyl-indazol-3-yl]-N, N-dimethyl-4-azaspiro [2.5]octan-7-amine] here?
Answer: Its EC50 is 1000 to 10000 nM.

Question: `CC(C)S(=O)(=O)c1ccc(S(=O)(=O)n2nc(N3CCN(C(=O)C4CC4)CC34CC4)c3c(Cl)cccc32)cc1` [Compound 57, [4-[4-chloro-1-(4-isopropylsulfonylphenyl)sulfonyl-indazol-3-yl]-4,7-diazaspiro[2.5]octan-7-yl]-cyclopropyl-methanone] was tested. Which EC50 did it give?
Answer: The EC50 was at most 1000 nM.

Question: `CC(C)S(=O)(=O)n1ccc(S(=O)(=O)n2nc(N3CCN(c4ncc(F)cc4F)CC34CC4)c3c(Cl)cccc32)c1` [Compound 141, 4-chloro-3-[7-(3,5-difluoro-2-pyridyl)-4,7-diazaspiro [2.5]octan-4-yl]-1-(1-isopropylsulfonylpyrrol-3-yl) sulfonyl-indazole] was tested. Which EC50 did it give?
Answer: The EC50 was at most 1000 nM.

Question: `O=S(=O)(n1nc(N2CCN(c3ncc(F)cn3)CC23CC3)c2c(Cl)cccc21)C12CC(F)(C1)C2` [Compound 132, 4-chloro-1-[(3-fluoro-1-bicyclo [1.1.1]pentanyl)sulfonyl]-3-[7-(5-fluoropyrimidin-2-yl)-4,7-diazaspiro [2.5]octan-4-yl]indazole] was tested. Which EC50 did it give?
Answer: The EC50 was at least 10000 nM.

Question: How did the EC50 turn out when `CC(C)S(=O)(=O)c1ccc(S(=O)(=O)n2nc(N3CCN(c4ncc(F)cc4F)CC34CC4)c3c(Cl)cccc32)s1` [Compound 45, 4-chloro-3-[7-(3,5-difluoro-2-pyridyl)-4,7-diazaspiro [2.5]octan-4-yl]-1-[(5-isopropylsulfonyl-2-thienyl)sulfonyl]indazole] was run?
Answer: The EC50 was at most 1000 nM.

Question: Which EC50 does the source give for `CC(C)S(=O)(=O)c1cccc(S(=O)(=O)n2nc(N3CCN(c4ncc(Cl)cn4)CC34CC4)c3c(Cl)cccc32)c1` [Compound 4, 4-chloro-3-[7-(5-chloropyrimidin-2-yl)-4,7-diazaspiro [2.5]octan-4-yl]-1-(3-isopropylsulfonylphenyl) sulfonyl-indazole] here?
Answer: The EC50 was at most 1000 nM.

Question: Which EC50 does the source give for `CC(C)S(=O)(=O)c1ccc(S(=O)(=O)n2nc(N3CCN(c4ncc(F)cn4)CC34CC4)c3c(Cl)cccc32)s1` [Compound 44, 4-chloro-3-[7-(5-fluoropyrimidin-2-yl)-4,7-diazaspiro [2.5]octan-4-yl]-1-[(5-isopropylsulfonyl-2-thienyl)sulfonyl]indazole] here?
Answer: Its EC50 is at most 1000 nM.

Question: For `CC(C)S(=O)(=O)c1ccc(S(=O)(=O)n2nc(N3CCN(c4ncc(Cl)cc4F)CC34CC4)c3c(Cl)cccc32)s1` [Compound 30, 4-chloro-3-[7-(5-chloro-3-fluoro-2-pyridyl)-4,7-diazaspiro [2.5]octan-4-yl]-1-[(5-isopropylsulfonyl-2-thienyl)sulfonyl]indazole], which EC50 is on record?
Answer: Its EC50 is at most 1000 nM.

Question: With `CC(C)S(=O)(=O)n1ccc(S(=O)(=O)n2nc(N3CCN(c4ncc(F)cc4F)CC34CC4)c3c(F)ccc(F)c32)c1` [Compound 144, 3-[7-(3,5-difluoro-2-pyridyl)-4,7-diazaspiro [2.5]octan-4-yl]-4,7-difluoro-1-(1-isopropylsulfonylpyrrol-3-yl) sulfonyl-indazole] as the molecule, how does the EC50 read?
Answer: The EC50 was at most 1000 nM.

Question: With `CC(C)S(=O)(=O)n1ccc(S(=O)(=O)n2nc(N3CCN(c4ccccn4)CC34CC4)c3c(Cl)cc(F)cc32)c1` [Compound 163, 4-chloro-6-fluoro-1-(1-isopropylsulfonylpyrrol-3-yl)sulfonyl-3-[7-(2-pyridyl)-4,7-diazaspiro[2.5]octan-4-yl]indazole] as the molecule, how does the EC50 read?
Answer: Its EC50 is at most 1000 nM.

Question: For `CC(C)S(=O)(=O)c1ccc(S(=O)(=O)n2nc(N3CCOCC34CC4)c3c(Cl)cccc32)s1` [Compound 7, 4-[4-chloro-1-[(5-isopropylsulfonyl-2-thienyl)sulfonyl]indazol-3-yl]-7-oxa-4-azaspiro [2.5]octane], which EC50 is on record?
Answer: The EC50 was at most 1000 nM.
